Test results taken from PubChem BioAssay AID1963832 (Molecular Pharmacology Branch, DTP, NCI, 2024).

System: 885724-159-R-J1-PDC complex spheroid viability
Assay: Anticancer human tumor 885724-159-R-J1-PDC patient-derived pancreatic adenocarcinoma cell line growth inhibition [POLQ]
Details: for IC50: curve of first compound; for viability, T/C: stronger effect = lower value
In short: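 Growth inhibition in 3D: complex spheroids (tumor PDC, HUVEC, MSC) treated with POLQ inhibitor combinations; where Cmax unknown, highest tested concentration 10 microM, except SN-38 at 1 microM.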

[1] = second compound 0.0316 µM, first compound 0.0316 µM
[2] = second compound 0.0316 µM, first compound 0.1 µM
[3] = second compound 0.0316 µM, first compound 0.316 µM
[4] = second compound 0.0316 µM, first compound 1 µM
[5] = second compound 0.0316 µM, first compound 3.16 µM
[6] = second compound 0.0316 µM, first compound 10 µM
[7] = second compound 0.1 µM, first compound 0.0316 µM
[8] = second compound 0.1 µM, first compound 0.1 µM
[9] = second compound 0.1 µM, first compound 0.316 µM
[10] = second compound 0.1 µM, first compound 1 µM
[11] = second compound 0.1 µM, first compound 3.16 µM
[12] = second compound 0.1 µM, first compound 10 µM
[13] = second compound 0.316 µM, first compound 0.0316 µM
[14] = second compound 0.316 µM, first compound 0.1 µM
[15] = second compound 0.316 µM, first compound 0.316 µM
[16] = second compound 0.316 µM, first compound 1 µM
[17] = second compound 0.316 µM, first compound 3.16 µM
[18] = second compound 0.316 µM, first compound 10 µM
[19] = second compound 1 µM, first compound 0.0316 µM
[20] = second compound 1 µM, first compound 0.1 µM
[21] = second compound 1 µM, first compound 0.316 µM
[22] = second compound 1 µM, first compound 1 µM
[23] = second compound 1 µM, first compound 3.16 µM
[24] = second compound 1 µM, first compound 10 µM
[25] = second compound 3.16 µM, first compound 0.0316 µM
[26] = second compound 3.16 µM, first compound 0.1 µM
[27] = second compound 3.16 µM, first compound 0.316 µM
[28] = second compound 3.16 µM, first compound 1 µM
[29] = second compound 3.16 µM, first compound 3.16 µM
[30] = second compound 3.16 µM, first compound 10 µM
[31] = second compound 10 µM, first compound 0.0316 µM
[32] = second compound 10 µM, first compound 0.1 µM
[33] = second compound 10 µM, first compound 0.316 µM
[34] = second compound 10 µM, first compound 1 µM
[35] = second compound 10 µM, first compound 3.16 µM
[36] = second compound 10 µM, first compound 10 µM
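Also: spheroids exposed to compounds for 7 days.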

SMILES: C=CC(=O)N1CCN(c2nc(=O)n(-c3c(C)ccnc3C(C)C)c3nc(-c4c(O)cccc4F)c(F)cc23)C(C)C1 (stereo not given) + COC1C(OC(N)=O)C(O)C(Oc2ccc3c(O)c(NC(=O)c4ccc(O)c(CC=C(C)C)c4)c(=O)oc3c2C)OC1(C)C
- IC50 (second compound 0.0316 µM): > 10 µM
- IC50 (second compound 0.1 µM): > 10 µM
- IC50 (second compound 0.316 µM): > 10 µM
- IC50 (second compound 1 µM): > 10 µM
- IC50 (second compound 3.16 µM): > 10 µM
- IC50 (second compound 10 µM): > 10 µM
- viability, T/C [1]: 104%
- viability, T/C [2]: 97.9%
- viability, T/C [3]: 110%
- viability, T/C [4]: 113%
- viability, T/C [5]: 114%
- viability, T/C [6]: 91.7%
- viability, T/C [7]: 109%
- viability, T/C [8]: 91.9%
- viability, T/C [9]: 106%
- viability, T/C [10]: 108%
- viability, T/C [11]: 115%
- viability, T/C [12]: 105%
- viability, T/C [13]: 107%
- viability, T/C [14]: 115%
- viability, T/C [15]: 104%
- viability, T/C [16]: 112%
- viability, T/C [17]: 123%
- viability, T/C [18]: 95.1%
- viability, T/C [19]: 118%
- viability, T/C [20]: 104%
- viability, T/C [21]: 112%
- viability, T/C [22]: 106%
- viability, T/C [23]: 114%
- viability, T/C [24]: 83.2%
- viability, T/C [25]: 102%
- viability, T/C [26]: 108%
- viability, T/C [27]: 104%
- viability, T/C [28]: 116%
- viability, T/C [29]: 124%
- viability, T/C [30]: 104%
- viability, T/C [31]: 96%
- viability, T/C [32]: 93.7%
- viability, T/C [33]: 106%
- viability, T/C [34]: 110%
- viability, T/C [35]: 111%
- viability, T/C [36]: 91%

SMILES: CC(C)n1c(=O)n(C)c2cnc3cc(F)c(-c4ccc(OCCCN5CCCCC5)nc4)cc3c21 + COC1C(OC(N)=O)C(O)C(Oc2ccc3c(O)c(NC(=O)c4ccc(O)c(CC=C(C)C)c4)c(=O)oc3c2C)OC1(C)C
- IC50 (second compound 0.0316 µM): > 10 µM
- IC50 (second compound 0.1 µM): > 10 µM
- IC50 (second compound 0.316 µM): > 10 µM
- IC50 (second compound 1 µM): > 10 µM
- IC50 (second compound 3.16 µM): > 10 µM
- IC50 (second compound 10 µM): > 10 µM
- viability, T/C [1]: 89.6%
- viability, T/C [2]: 89.6%
- viability, T/C [3]: 97.5%
- viability, T/C [4]: 88.9%
- viability, T/C [5]: 88.3%
- viability, T/C [6]: 84.4%
- viability, T/C [7]: 96.5%
- viability, T/C [8]: 99.4%
- viability, T/C [9]: 100%
- viability, T/C [10]: 100%
- viability, T/C [11]: 91.1%
- viability, T/C [12]: 105%
- viability, T/C [13]: 99.4%
- viability, T/C [14]: 86.6%
- viability, T/C [15]: 93.5%
- viability, T/C [16]: 93.7%
- viability, T/C [17]: 91.8%
- viability, T/C [18]: 86.1%
- viability, T/C [19]: 104%
- viability, T/C [20]: 96.5%
- viability, T/C [21]: 104%
- viability, T/C [22]: 90%
- viability, T/C [23]: 97%
- viability, T/C [24]: 77.8%
- viability, T/C [25]: 99.5%
- viability, T/C [26]: 92.5%
- viability, T/C [27]: 94.3%
- viability, T/C [28]: 98%
- viability, T/C [29]: 98.7%
- viability, T/C [30]: 93.2%
- viability, T/C [31]: 100%
- viability, T/C [32]: 94.9%
- viability, T/C [33]: 114%
- viability, T/C [34]: 91.9%
- viability, T/C [35]: 88.8%
- viability, T/C [36]: 93.2%

SMILES: CC1COCCN1c1cc(-c2ccnn2C)c2ccnc(-c3ccn[nH]3)c2n1 (stereo not given) + COC1C(OC(N)=O)C(O)C(Oc2ccc3c(O)c(NC(=O)c4ccc(O)c(CC=C(C)C)c4)c(=O)oc3c2C)OC1(C)C
- IC50 (second compound 0.0316 µM): 0.229 µM
- IC50 (second compound 0.1 µM): 0.211 µM
- IC50 (second compound 0.316 µM): 0.169 µM
- IC50 (second compound 1 µM): 0.188 µM
- IC50 (second compound 3.16 µM): 0.189 µM
- IC50 (second compound 10 µM): 0.247 µM
- viability, T/C [1]: 78.3%
- viability, T/C [2]: 63.8%
- viability, T/C [3]: 44.3%
- viability, T/C [4]: 42.1%
- viability, T/C [5]: 39%
- viability, T/C [6]: 39.3%
- viability, T/C [7]: 76.5%
- viability, T/C [8]: 64.3%
- viability, T/C [9]: 41.6%
- viability, T/C [10]: 41.5%
- viability, T/C [11]: 35.2%
- viability, T/C [12]: 35.6%
- viability, T/C [13]: 81.1%
- viability, T/C [14]: 53.8%
- viability, T/C [15]: 44.3%
- viability, T/C [16]: 43.5%
- viability, T/C [17]: 43.3%
- viability, T/C [18]: 36.2%
- viability, T/C [19]: 84.1%
- viability, T/C [20]: 55.8%
- viability, T/C [21]: 43.6%
- viability, T/C [22]: 43.7%
- viability, T/C [23]: 41%
- viability, T/C [24]: 33.5%
- viability, T/C [25]: 76.4%
- viability, T/C [26]: 55.9%
- viability, T/C [27]: 45.5%
- viability, T/C [28]: 37.8%
- viability, T/C [29]: 37.8%
- viability, T/C [30]: 33.8%
- viability, T/C [31]: 77.1%
- viability, T/C [32]: 57.6%
- viability, T/C [33]: 48.2%
- viability, T/C [34]: 41.1%
- viability, T/C [35]: 38.9%
- viability, T/C [36]: 34.4%

SMILES: CCc1cc2c(N3CCc4c(cc(Cn5ccnc5)cc4-c4cn(C)nc4C(F)(F)F)C3=O)ccnc2c(OC)n1 + COC1C(OC(N)=O)C(O)C(Oc2ccc3c(O)c(NC(=O)c4ccc(O)c(CC=C(C)C)c4)c(=O)oc3c2C)OC1(C)C
- IC50 (second compound 0.0316 µM): > 10 µM
- IC50 (second compound 0.1 µM): > 10 µM
- IC50 (second compound 0.316 µM): > 10 µM
- IC50 (second compound 1 µM): > 10 µM
- IC50 (second compound 3.16 µM): > 10 µM
- IC50 (second compound 10 µM): > 10 µM
- viability, T/C [1]: 90.9%
- viability, T/C [2]: 76.4%
- viability, T/C [3]: 75.5%
- viability, T/C [4]: 75%
- viability, T/C [5]: 75%
- viability, T/C [6]: 70.3%
- viability, T/C [7]: 86.8%
- viability, T/C [8]: 82.1%
- viability, T/C [9]: 80.1%
- viability, T/C [10]: 82.2%
- viability, T/C [11]: 76.3%
- viability, T/C [12]: 68.2%
- viability, T/C [13]: 89.3%
- viability, T/C [14]: 86.1%
- viability, T/C [15]: 72.3%
- viability, T/C [16]: 70.9%
- viability, T/C [17]: 75.5%
- viability, T/C [18]: 64.6%
- viability, T/C [19]: 85.2%
- viability, T/C [20]: 86%
- viability, T/C [21]: 79.5%
- viability, T/C [22]: 83.1%
- viability, T/C [23]: 77%
- viability, T/C [24]: 59.1%
- viability, T/C [25]: 87.5%
- viability, T/C [26]: 80.3%
- viability, T/C [27]: 79.8%
- viability, T/C [28]: 72.5%
- viability, T/C [29]: 75.4%
- viability, T/C [30]: 69.5%
- viability, T/C [31]: 80.6%
- viability, T/C [32]: 76.8%
- viability, T/C [33]: 76.6%
- viability, T/C [34]: 80.4%
- viability, T/C [35]: 79.5%
- viability, T/C [36]: 64.1%

SMILES: COc1ccc([C@@H](O)c2cc(-c3ncnc4cc(N5CCOCC5)ccc34)c(F)cc2Cl)nn1 + COC1C(OC(N)=O)C(O)C(Oc2ccc3c(O)c(NC(=O)c4ccc(O)c(CC=C(C)C)c4)c(=O)oc3c2C)OC1(C)C
- IC50 (second compound 0.0316 µM): 3.45 µM
- IC50 (second compound 0.1 µM): 4.09 µM
- IC50 (second compound 0.316 µM): 4.05 µM
- IC50 (second compound 1 µM): 4.77 µM
- IC50 (second compound 3.16 µM): 3.15 µM
- IC50 (second compound 10 µM): 3.75 µM
- viability, T/C [1]: 95.4%
- viability, T/C [2]: 85.4%
- viability, T/C [3]: 76.3%
- viability, T/C [4]: 65.5%
- viability, T/C [5]: 53.4%
- viability, T/C [6]: 33.4%
- viability, T/C [7]: 104%
- viability, T/C [8]: 104%
- viability, T/C [9]: 81.9%
- viability, T/C [10]: 71.2%
- viability, T/C [11]: 56.7%
- viability, T/C [12]: 33.8%
- viability, T/C [13]: 100%
- viability, T/C [14]: 93.3%
- viability, T/C [15]: 86.6%
- viability, T/C [16]: 73.7%
- viability, T/C [17]: 54.2%
- viability, T/C [18]: 32.8%
- viability, T/C [19]: 94.2%
- viability, T/C [20]: 81.4%
- viability, T/C [21]: 90%
- viability, T/C [22]: 66.8%
- viability, T/C [23]: 61.9%
- viability, T/C [24]: 34.3%
- viability, T/C [25]: 89.9%
- viability, T/C [26]: 81.3%
- viability, T/C [27]: 97.2%
- viability, T/C [28]: 68.4%
- viability, T/C [29]: 52.5%
- viability, T/C [30]: 31.8%
- viability, T/C [31]: 108%
- viability, T/C [32]: 86.9%
- viability, T/C [33]: 87.5%
- viability, T/C [34]: 69.1%
- viability, T/C [35]: 55.5%
- viability, T/C [36]: 31.5%
